Test results from patent US20210393565A1, “PREPARATION FOR USE TO INCREASE THE FORMATION OF ONE OR MORE SPECIALIZED PRO-RESOLVING LIPID MEDIATORS (SPM)” (Evonik Operations GmbH, priority 2018, published 2021).

Tests used:
Assay type in all cases: cell-based
[1] = test system: Bacillus megaterium DSM 33299 cells; assay: Lipidometabolomics of culture supernatants with AvailOm dispersion formulation; conditions: Bacillus megaterium DSM 33299, AvailOm dispersion formulation; net concentration
Description: (§1) Bacterial supernatant samples were subjected to lipid extraction using RP-phase solid phase extraction and subsequently analyzed by ultra performance liquid chromatography ESI tandem mass spectrometry (UPLC-MS/MS) according to a published procedure. Under these conditions approximately 40 different LM, including 5-hydroxy-eicosapentaenoic acid 5-HEPE, 8-HEPE, 11-HEPE, 12-HEPE, 15-HEPE, 18-HEPE, 5-hydroxy-eicosatetraenoic acid (5-HETE), 8-HETE, 11-HETE, 12-HETE, 15-HETE, 4-hydroxy-DHA (4-HDHA), 7-HDHA, 13-HDHA, 14-HDHA, 17-HDHA, lipoxin A4 (LXA4), LXB4, resolvin E1 (RvE1), RvE3, resolvin D1-5 (RvD1-5), AT-RvD1, RvD2, protectin D1 (PD1), AT-PD1, maresin 1(MaR1), MaR2, plus 4 fatty acid substrates can be detected with a lower limit of detection of 1 pg.
(§2) 47 additional Bacillus megaterium strains sourced from various habitats were screened for their SPM production capacity to determine if this is a general phenomenon of the species Bacillus megaterium and to detect strain-specific differences in types and quantities of SPM being produced. Cells were cultured as detailed in example 4, with dispersion formulation of AvailOm® serving as omega-3 fatty acid source. Cell-free preparations of AvailOm® were treated and analyzed in parallel and served as controls for non-enzymatic, spontaneous formation of oxygenation products. It was observed that all tested strains produced measurable (>1 pg/ml) amounts of various SPM and precursors thereof, that these amounts were hugely different between the strains (up to 2.000 fold), and that concentrations of RvE3 were particularly high (up to 1.3 μg/ml) in most of the strains.
(§3) Values given in table 7 display net concentrations of PUFA oxygenation products formed by two of the top performing strains, Bacillus megaterium DSM 33296 and Bacillus megaterium DSM 33299.

[2] = test system: Bacillus megaterium DSM 33296 cells; assay: as above; conditions: Bacillus megaterium DSM 33296, AvailOm dispersion formulation; net concentration
Description: as §1, §2, §3

[3] = test system: Bacillus megaterium DSM 32963 cells; assay: Lipidometabolomics (UPLC-MS/MS) of culture supernatants with AvailOm, dissolved or as dispersion; conditions: − bile acids, net after subtraction of cell-free control
Description: as §1
To investigate if Bacillus megaterium is capable of producing other PUFA oxygenation products in addition to 18-HEPE, a lipidometabolomics screening of supernatants from Bacillus megaterium strain 32963 cultured as in example 4 with AvailOm® was performed, either dissolved or in a dispersion formulation, with or without bile acids. Cell-free preparations of AvailOm® formulations were treated and analyzed in parallel and served as controls for non-enzymatic, spontaneous formation of oxygenation products. Values given in table 6 display net concentrations of products formed, i.e. after subtraction of control values. […] Concentrations of several SPM exceed by far the concentrations of SPM found in human plasma samples, which are typically in a range of ˜20-100 pg/ml. For comparison, human breast milk contains ˜6.000 pg/ml RvE1 and ˜10.000 pg/ml RvD1 [42].

[4] = test system: 47 additional Bacillus megaterium strains; assay: Screening of 47 additional strains for SPM production from AvailOm dispersion formulation
Description: as §1
47 additional Bacillus megaterium strains sourced from various habitats were screened for their SPM production capacity to determine if this is a general phenomenon of the species Bacillus megaterium and to detect strain-specific differences in types and quantities of SPM being produced. Cells were cultured as detailed in example 4, with dispersion formulation of AvailOm® serving as omega-3 fatty acid source. Cell-free preparations of AvailOm® were treated and analyzed in parallel and served as controls for non-enzymatic, spontaneous formation of oxygenation products. […]

| Compound | Extracellular concentration of PUFA oxygenation product [1] [pg/mL] | Extracellular concentration of PUFA oxygenation product [2] [pg/mL] | Extracellular concentration of PUFA oxygenation product ([3]; AvailOm dispersion) [pg/mL] | concentration produced, highest among the strains [4] | Extracellular concentration of PUFA oxygenation product ([3]; AvailOm) [pg/mL] |
| --- | --- | --- | --- | --- | --- |
| CC[C@H](O)C(O)/C=C/C=C/C=C\C/C=C\C/C=C\CCCC(=O)O (stereo partly shown) [RvE3, resolvin E3] | 880739 | 1322555 | 33092 | up to 1.3 μg/ml |  |
| CC/C=C\C[C@H](O)/C=C/C=C\C=C\C=C\[C@@H](O)[C@@H](O)CCCC(=O)O [LXA5, lipoxin A5] | 128825 | 4693 | 41263 |  | 7767 |
| CC[C@@H](O)/C=C/C=C\C[C@@H](O)/C=C/C=C/C=C\[C@@H](O)CCCC(=O)O [RvE1, resolvin E1] | 28379 | 5840 | 57826 |  | 88 |
| CC/C=C\C[C@H](O)\C=C/C=C/C=C/[C@H](O)C/C=C\C/C=C\CCC(=O)O [PD1 1, protectin D1] | 75342 | 99029 | 3841 |  | 113 |
